Test results: patent US20230303570A1, “KINASE INHIBITORS AND USES THEREOF” (ABM Therapeutics Corporation, priority 2020, published 2023)

Experiments:
c-Kit = c-Kit (Homo sapiens, UniProt P10721); experiment: cKit kinase mobility shift assay; type: biochemical
Experimental: The effect of the compounds on the activity of cKit, RET and AXL kinases were assessed by Mobility shift assay. • 1. 1× kinase base buffer and stop buffer for testing kinases were prepared • 1-1) 1× Kinase base buffer (50 mM HEPES, pH 7.5, 0.01% Triton X-100) • 1-2) Stop buffer (100 mM HEPES, pH 7.5, 0.015% Brij-35, 0.2% Coating Reagent #3, 50 mM EDTA) • 2. Compound and assay plate preparation: the compound was diluted to 50× of the final desired highest inhibitor concentration in reaction by 100% DMSO. 100 μl of this compound dilution was transferred to a well in a 96-well plate. For example, if the highest desired concentration was 5 μM, then 250 μM of compound DMSO solution was prepared in this step. For all compounds, the compound was serially diluted by transferring 10 μl to 70 μl of 100 DMSO in the next well and so forth for a total of 5 concentrations. 100 μl of 100% DMSO was added to two empty wells for no compound control and no enzyme control in the same 96-well plate. The plate was labeled as source plate. The intermediate plate was prepared by transferring 10 μl of compound from source plate to a new 96-well plate as the intermediate plate, adding 90 μl of 1× kinase buffer to each well of the intermediate plate, mixing the compounds in intermediate plate for 10 min on shaker. 5 μl of each well from the 96-well intermediate plate were transferred to a 384-well plate in duplicates. For example, A1 of the 96-well plate was transferred to A1 and A2 of the 384-well plate. A2 of the 96-well plate was transferred to A3 and A4 of the 384-well plate, and so on. • 4. Kinase reaction: The assay plate already contained 5 μl of compound in 10% DMSO. A 2.5× enzyme solution was prepared by adding kinases (cKit, RET, or AXL) and DTT in 1× kinase base buffer. 2.5× enzyme solution was transferred to the assay plate (by adding 10 μl of 2.5× enzyme solution to each well of the 384-well assay plate). The plate was incubated at room temperature for 10 min. 2.5× peptide solution was prepared by adding FAM-labeled peptide, ATP, MgCl2 in the 1× kinase base buffer. 2.5× peptide solution was added to the assay plate by adding 10 μl of 2.5× peptide solution to each well of the 384-well assay plate. The plate was incubated at 28° C. for the specified period of time. 25 μl of stop buffer was added to stop reaction. Data was collected on Caliper.

[1] = Mouse pharmacokinetics study (intravenous and oral); type: in vivo; conditions: CD-1 mice; for AUC / Cmax / Tmax / Vd / half-life / clearance: mouse, plasma; for AUC / Cmax / Tmax / F: PO 25 mg/kg; for Vd / half-life / clearance: IV 5 mg/kg; for clearance: read-out: Clp
From the text: The test articles were formulated in […] Hydroxypropyl-beta-cyclodextrin, either as a clear solution or fine suspension.

HPK1 (MAP4K1) = HPK1 (MAP4K1) (Homo sapiens, UniProt Q92918); experiment: HPK1 (MAP4K1) kinase Lantha screen assay; type: biochemical
Procedure, shortened: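 Recombinant MAP4K1 preincubated 10 min with compound (6-point dilution, duplicates) in 50 mM HEPES pH 7.5, 10 mM MgCl2, then reacted with Fluorescein-PKC substrate and ATP for 90 min at room temperature. Antibody detection solution stopped reaction; after 60 min, TR-FRET read at ex 340 nm, em 520/495 nm.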

Chain of c-Kit (P10721 26-976): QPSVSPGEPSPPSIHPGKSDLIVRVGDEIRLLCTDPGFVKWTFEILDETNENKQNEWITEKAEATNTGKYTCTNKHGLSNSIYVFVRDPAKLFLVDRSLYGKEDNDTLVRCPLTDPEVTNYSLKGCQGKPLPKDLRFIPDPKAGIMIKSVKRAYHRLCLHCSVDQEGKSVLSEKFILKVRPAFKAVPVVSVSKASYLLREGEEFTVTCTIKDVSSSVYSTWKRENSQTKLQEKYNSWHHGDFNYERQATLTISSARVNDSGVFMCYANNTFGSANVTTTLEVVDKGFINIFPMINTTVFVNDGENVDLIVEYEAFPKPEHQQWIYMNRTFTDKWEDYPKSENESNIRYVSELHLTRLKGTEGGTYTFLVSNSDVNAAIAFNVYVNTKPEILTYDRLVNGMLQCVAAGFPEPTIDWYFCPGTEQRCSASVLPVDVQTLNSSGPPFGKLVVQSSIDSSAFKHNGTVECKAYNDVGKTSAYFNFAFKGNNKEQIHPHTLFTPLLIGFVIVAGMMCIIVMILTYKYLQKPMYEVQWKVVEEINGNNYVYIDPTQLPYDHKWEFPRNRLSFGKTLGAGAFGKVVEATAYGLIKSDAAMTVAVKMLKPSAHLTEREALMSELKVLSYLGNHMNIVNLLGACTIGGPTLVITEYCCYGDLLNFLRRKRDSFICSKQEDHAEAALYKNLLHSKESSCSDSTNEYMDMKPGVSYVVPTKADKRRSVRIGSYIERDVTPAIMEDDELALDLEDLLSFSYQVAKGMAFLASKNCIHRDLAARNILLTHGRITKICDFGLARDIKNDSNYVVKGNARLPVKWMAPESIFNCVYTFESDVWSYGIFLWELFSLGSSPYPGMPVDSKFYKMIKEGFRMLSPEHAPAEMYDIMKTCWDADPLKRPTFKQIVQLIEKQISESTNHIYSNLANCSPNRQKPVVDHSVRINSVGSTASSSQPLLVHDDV
Chain of HPK1 (MAP4K1) (Q92918 whole entry, species assumed): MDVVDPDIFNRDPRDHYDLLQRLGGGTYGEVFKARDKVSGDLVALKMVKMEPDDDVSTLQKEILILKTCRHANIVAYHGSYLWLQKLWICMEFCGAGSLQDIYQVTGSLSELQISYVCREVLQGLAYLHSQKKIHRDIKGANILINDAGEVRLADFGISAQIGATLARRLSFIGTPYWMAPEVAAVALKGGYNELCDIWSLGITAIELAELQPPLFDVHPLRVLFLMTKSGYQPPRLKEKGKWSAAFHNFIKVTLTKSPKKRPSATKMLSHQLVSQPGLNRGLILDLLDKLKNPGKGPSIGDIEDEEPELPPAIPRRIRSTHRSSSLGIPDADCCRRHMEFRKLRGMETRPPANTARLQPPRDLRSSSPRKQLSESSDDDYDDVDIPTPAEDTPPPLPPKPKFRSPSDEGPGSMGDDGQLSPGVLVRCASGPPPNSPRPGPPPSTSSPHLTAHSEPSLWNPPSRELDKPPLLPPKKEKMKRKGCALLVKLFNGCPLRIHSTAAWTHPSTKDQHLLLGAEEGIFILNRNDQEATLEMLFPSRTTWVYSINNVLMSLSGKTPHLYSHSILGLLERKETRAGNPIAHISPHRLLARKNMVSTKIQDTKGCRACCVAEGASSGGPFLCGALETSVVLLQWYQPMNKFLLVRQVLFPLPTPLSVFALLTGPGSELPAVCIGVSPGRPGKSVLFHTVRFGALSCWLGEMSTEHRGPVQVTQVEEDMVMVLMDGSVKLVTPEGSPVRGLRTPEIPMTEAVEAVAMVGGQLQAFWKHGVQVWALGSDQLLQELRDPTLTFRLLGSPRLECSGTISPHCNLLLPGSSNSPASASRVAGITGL

Compound	IC50 (c-Kit)	AUC [1]	Cmax [1]	Tmax [1]	other results
CN1CCC(n2cc(Nc3ncc4c(n3)N3CCN=C3C(c3ccc(Cl)cc3Cl)=C4)cn2)CC1 [Compound 103, 6-(2,4-dichlorophenyl)-N-(1-(1-methylpiperidin-4-yl)-1H-pyrazol-4-yl)-8,9-dihydroimidazo[1′,2′:1,6]pyrido[2,3-d]pyrimidin-2-amine]	< 100 nM				
CNc1ncc2c(n1)N1CCN=C1C(Oc1ccc(NC(=O)NC3CC3)cc1)=C2 [Compound 312, 1-cyclopropyl-3-(4-((2-(methylamino)-8,9-dihydroimidazo[1′,2′:1,6]pyrido[2,3-d]pyrimidin-6-yl)oxy)phenyl)urea]	> 10000 nM				
CNc1ncc2c(n1)N1CCN=C1C(c1c(C)ccc(NC(=O)c3cc(C(F)(F)F)ccn3)c1F)=C2 [Compound 140, N-(2-fluoro-4-methyl-3-(2-(methylamino)-8,9-dihydroimidazo[1′,2′:1,6]pyrido[2,3-d]pyrimidin-6-yl)phenyl)-4-(trifluoromethyl)picolinamide]	100 to 10000 nM				
CNc1ncc2c(n1)N1CCN=C1C(c1cc(NC(=O)Nc3ccccc3F)c(F)cc1C)=C2 [Compound 338, 1-(2-fluoro-4-methyl-5-(2-(methylamino)-8,9-dihydroimidazo[1′,2′:1,6]pyrido[2,3-d]pyrimidin-6-yl)phenyl)-3-(2-fluorophenyl)urea]	< 100 nM				
CNc1ncc2c(n1)N1CCN=C1C(c1cc(NC(=O)Nc3ccc(Cl)cc3F)c(F)cc1C)=C2 [Compound 337, 1-(4-chloro-2-fluorophenyl)-3-(2-fluoro-4-methyl-5-(2-(methylamino)-8,9-dihydroimidazo[1′,2′:1,6]pyrido[2,3-d]pyrimidin-6-yl)phenyl)urea]	< 100 nM				
Cc1ccc(NC(=O)c2cc(C(F)(F)F)ccn2)cc1C1=Cc2cnc(Nc3cncs3)nc2N2CCN=C12 [Compound 256, N-(4-methyl-3-(2-(thiazol-5-ylamino)-8,9-dihydroimidazo[1′,2′:1,6]pyrido[2,3-d]pyrimidin-6-yl)phenyl)-4-(trifluoromethyl)picolinamide]		11700 ± 1430 ng·h/mL	1180 ± 193 ng/mL	1.33 ± 0.58 h	
CNc1ncc2c(n1)N1CCN=C1C(c1cc(NC(=O)NC3CC3)c(F)cc1C)=C2 [Compound 315, 1-cyclopropyl-3-(2-fluoro-4-methyl-5-(2-(methylamino)-8,9-dihydroimidazo[1′,2′:1,6]pyrido[2,3-d]pyrimidin-6-yl)phenyl)urea]	> 10000 nM				
Cc1ncc(Nc2ncc3c(n2)N2CCN=C2C(c2cc(NC(=O)c4cc(C(F)(F)F)ccn4)ccc2C)=C3)s1 [Compound 231, N-(4-methyl-3-(2-((2-methylthiazol-5-yl)amino)-8,9-dihydroimidazo[1′,2′:1,6]pyrido[2,3-d]pyrimidin-6-yl)phenyl)-4-(trifluoromethyl)picolinamide]		16200 ± 2100 ng·h/mL	1190 ± 302 ng/mL	1.67 ± 0.58 h	IC50 (HPK1 (MAP4K1)): < 100 nM
O=C(Nc1cc(C2=Cc3cnc(NC4COC4)nc3N3CCN=C23)c(Br)cc1F)c1cc(C(F)(F)F)ccn1 [Compound 188, N-(4-bromo-2-fluoro-5-(2-(oxetan-3-ylamino)-8,9-dihydroimidazo[1′,2′:1,6]pyrido[2,3-d]pyrimidin-6-yl)phenyl)-4-(trifluoromethyl)picolinamide]	< 100 nM				
Cc1cc(F)c(NC(=O)c2cc(C(C)(C)C#N)ccn2)cc1C1=Cc2cnc(Nc3cnn(C)c3)nc2N2CCN=C12 [Compound 202, 4-(2-cyanopropan-2-yl)-N-(2-fluoro-4-methyl-5-(2-((1-methyl-1H-pyrazol-4-yl)amino)-8,9-dihydroimidazo[1′,2′:1,6]pyrido[2,3-d]pyrimidin-6-yl)phenyl)picolinamide]		8160 ± 1270 ng·h/mL	839 ± 59 ng/mL	1.67 ± 0.58 h	F [1]: 56 ± 9%; Vd [1]: 9.64 ± 1.99 L/kg; half-life [1]: 3.99 ± 0.72 h; clearance [1]: 27.8 ± 1 mL/min/kg
Cc1ccc(NC(=O)c2cc(C(C)(C)C#N)ccn2)cc1C1=Cc2cnc(Nc3cnn(C)c3)nc2N2CCN=C12 [Compound 199, 4-(2-cyanopropan-2-yl)-N-(4-methyl-3-(2-((1-methyl-1H-pyrazol-4-yl)amino)-8,9-dihydroimidazo[1′,2′:1,6]pyrido[2,3-d]pyrimidin-6-yl)phenyl)picolinamide]		1730 ± 619 ng·h/mL	245 ± 37 ng/mL	2 h	
CNc1ncc2c(n1)N1CCN=C1C(c1cc(NC(=O)Nc3ccccc3)c(F)cc1Br)=C2 [Compound 326, 1-(4-bromo-2-fluoro-5-(2-(methylamino)-8,9-dihydroimidazo[1′,2′:1,6]pyrido[2,3-d]pyrimidin-6-yl)phenyl)-3-phenylurea]	< 100 nM				
Cc1ccc(NC(=O)c2cc(C(F)(F)F)ccn2)cc1C1=Cc2cnc(Nc3ccn(C)n3)nc2N2CCN=C12 [Compound 234, N-(4-methyl-3-(2-((1-methyl-1H-pyrazol-3-yl)amino)-8,9-dihydroimidazo[1′,2′:1,6]pyrido[2,3-d]pyrimidin-6-yl)phenyl)-4-(trifluoromethyl)picolinamide]		20500 ± 2190 ng·h/mL	1630 ± 151 ng/mL	2 h	IC50 (HPK1 (MAP4K1)): < 100 nM
CCNc1ncc2c(n1)N1CCN=C1C(c1cc(NC(=O)Nc3ccccc3Cl)c(F)cc1C)=C2 [Compound 332, 1-(2-chlorophenyl)-3-(5-(2-(ethylamino)-8,9-dihydroimidazo[1′,2′:1,6]pyrido[2,3-d]pyrimidin-6-yl)-2-fluoro-4-methylphenyl)urea]	< 100 nM				
CNc1ncc2c(n1)N1CCN=C1C(c1cc(NC(=O)c3cc(C(C)(C)C#N)ccn3)ccc1C)=C2 [Compound 163, 4-(2-cyanopropan-2-yl)-N-(4-methyl-3-(2-(methylamino)-8,9-dihydroimidazo[1′,2′:1,6]pyrido[2,3-d]pyrimidin-6-yl)phenyl)picolinamide]		6320 ± 4580 ng·h/mL	1100 ± 497 ng/mL	1.33 ± 0.58 h	IC50 (HPK1 (MAP4K1)): < 100 nM; F [1]: 74.6 ± 54%; Vd [1]: 6.61 ± 1.04 L/kg; half-life [1]: 1.57 ± 0.2 h; clearance [1]: 48.8 ± 5.8 mL/min/kg
Cc1csc(Nc2ncc3c(n2)N2CCN=C2C(c2cc(NC(=O)c4cc(C(F)(F)F)ccn4)ccc2C)=C3)n1 [Compound 233, N-(4-methyl-3-(2-((4-methylthiazol-2-yl)amino)-8,9-dihydroimidazo[1′,2′:1,6]pyrido[2,3-d]pyrimidin-6-yl)phenyl)-4-(trifluoromethyl)picolinamide]		12000 ± 2750 ng·h/mL	893 ± 258 ng/mL	6.67 ± 2.31 h	IC50 (HPK1 (MAP4K1)): < 100 nM
CNc1ncc2c(n1)N1CCN=C1C(c1cc(NC(=O)Nc3ccccc3Cl)c(F)cc1Br)=C2 [Compound 327, 1-(4-bromo-2-fluoro-5-(2-(methylamino)-8,9-dihydroimidazo[1′,2′:1,6]pyrido[2,3-d]pyrimidin-6-yl)phenyl)-3-(2-chlorophenyl)urea]	< 100 nM				
O=C(Nc1cc(C2=Cc3cnc(NC4COC4)nc3N3CCN=C23)c(Br)cc1F)Nc1ccccc1Cl [Compound 329, 1-(4-bromo-2-fluoro-5-(2-(oxetan-3-ylamino)-8,9-dihydroimidazo[1′,2′:1,6]pyrido[2,3-d]pyrimidin-6-yl)phenyl)-3-(2-chlorophenyl)urea]	< 100 nM				
Cc1cc(Nc2ncc3c(n2)N2CCN=C2C(c2cc(NC(=O)c4cc(C(F)(F)F)ccn4)ccc2C)=C3)sn1 [Compound 242, N-(4-methyl-3-(2-((3-methylisothiazol-5-yl)amino)-8,9-dihydroimidazo[1′,2′:1,6]pyrido[2,3-d]pyrimidin-6-yl)phenyl)-4-(trifluoromethyl)picolinamide]		36900 ± 4060 ng·h/mL	3060 ± 253 ng/mL	1.67 ± 0.58 h	
Cc1cc(F)c(NC(=O)c2cc(C(C)(C)C#N)ccn2)cc1C1=Cc2cnc(NC3COC3)nc2N2CCN=C12 [Compound 181, 4-(2-cyanopropan-2-yl)-N-(2-fluoro-4-methyl-5-(2-(oxetan-3-ylamino)-8,9-dihydroimidazo[1′,2′:1,6]pyrido[2,3-d]pyrimidin-6-yl)phenyl)picolinamide]		8610 ± 903 ng·h/mL	1760 ± 380 ng/mL	2 h	IC50 (HPK1 (MAP4K1)): < 100 nM; F [1]: 58.1 ± 6.1%; Vd [1]: 4.78 ± 1.21 L/kg; half-life [1]: 2.01 ± 0.82 h; clearance [1]: 28.5 ± 3.8 mL/min/kg
